Read-outs that look alike come from different tables or passages of the source. Positions of bridges follow the written chain, without caps; N, C: chain ends. Residues, ends and D or L forms follow the SMILES beside them.

Common to all, as to assay type: binding
In one assay the target is T1, FGF-R3C ECD (Homo sapiens, UniProt P22607).
T1 sequence (P22607 23-375 limits assumed): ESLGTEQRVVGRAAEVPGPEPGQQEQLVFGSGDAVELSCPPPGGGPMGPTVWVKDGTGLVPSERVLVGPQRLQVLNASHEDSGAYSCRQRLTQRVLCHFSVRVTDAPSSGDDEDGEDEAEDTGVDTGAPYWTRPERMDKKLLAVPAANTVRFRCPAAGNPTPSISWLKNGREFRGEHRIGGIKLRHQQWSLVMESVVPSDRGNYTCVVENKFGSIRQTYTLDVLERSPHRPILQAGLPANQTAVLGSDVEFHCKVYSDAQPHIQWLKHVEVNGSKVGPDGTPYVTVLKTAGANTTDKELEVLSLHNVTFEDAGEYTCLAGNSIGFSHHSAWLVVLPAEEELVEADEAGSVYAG
Kind of assay: biochemical. Also on record: DNA constructs for the extracellular domain (ECD) of human FGF-; HPC4 (C); made in house; host or cells: HEK 293-6E. In outline: (§1)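 Biolayer interferometry with biotinylated FGF-R ECD on streptavidin biosensors in PBS pH 7.4, 0.05% Tween-20, 0.01% BSA. Multi-concentration: purified peptide dilution series fitted to a multi-point KD model.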

Another assay concerns the target T2, FGF-R1C ECD (Homo sapiens, UniProt P11362).
T2 sequence (P11362 22-376 limits assumed): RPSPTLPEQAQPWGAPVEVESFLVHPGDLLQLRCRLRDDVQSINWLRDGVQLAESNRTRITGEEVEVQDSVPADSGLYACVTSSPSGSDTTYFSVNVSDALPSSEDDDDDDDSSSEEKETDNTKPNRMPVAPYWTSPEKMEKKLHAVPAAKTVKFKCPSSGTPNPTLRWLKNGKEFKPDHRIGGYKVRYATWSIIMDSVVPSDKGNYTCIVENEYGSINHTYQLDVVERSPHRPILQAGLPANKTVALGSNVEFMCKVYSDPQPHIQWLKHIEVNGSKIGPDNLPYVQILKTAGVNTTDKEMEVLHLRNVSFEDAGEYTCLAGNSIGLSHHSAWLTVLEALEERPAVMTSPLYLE
Kind of assay: biochemical. The arrangement: DNA constructs for the extracellular domain (ECD) of human FGF-; HPC4 (C); made in house; host or cells: HEK 293-6E. In outline:
as §1

The target in the next assay is T3, FGF-R4 ECD (Homo sapiens, UniProt P22455).
T3 construct: DNA constructs for the extracellular domain (ECD) of human FGF-; HPC4 (C); made in house; host or cells: HEK 293-6E
T3 sequence (P22455 22-369 limits assumed): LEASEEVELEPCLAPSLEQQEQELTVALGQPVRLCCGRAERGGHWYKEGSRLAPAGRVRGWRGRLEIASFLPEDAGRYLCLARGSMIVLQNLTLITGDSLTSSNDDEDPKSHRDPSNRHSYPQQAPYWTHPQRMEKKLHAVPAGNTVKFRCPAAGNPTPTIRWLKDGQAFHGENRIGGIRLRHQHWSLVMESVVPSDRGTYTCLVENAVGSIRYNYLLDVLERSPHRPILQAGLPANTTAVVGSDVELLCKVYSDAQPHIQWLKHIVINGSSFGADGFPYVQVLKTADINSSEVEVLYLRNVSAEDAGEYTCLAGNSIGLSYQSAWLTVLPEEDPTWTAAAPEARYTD
Description: single concentration BLI of crude peptides. The settings on record: read-out: KD (4). The gist of the method:
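Biotinylated FGF-R ECD on streptavidin biosensors was dipped into ~1 μM crude peptide in PBS pH7.4 with 0.05% Tween-20 and 0.01% BSA for association, then into buffer for dissociation, and followed by BLI. Fitted KD values were adjusted for peptide concentration measured by UPLC-CAD.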

[1] abbreviates: crude T18 selection 1 (1:1:1) peptides, single concentration BLI (Table S4).

`CC[C@H](C)[C@@H]1NC(=O)[C@@H](NC(=O)[C@H](CCSC)NC(C)=O)CSSC[C@@H](C(=O)NCC(=O)N[C@@H](CO)C(=O)NCC(=O)N[C@@H](CO)C(=O)N[C@@H](CC(=O)O)C(=O)N[C@@H](Cc2ccc(O)cc2)C(=O)N[C@@H](CCCCN)C(=O)N[C@@H](CC(=O)O)C(=O)N[C@@H](CC(=O)O)C(=O)N[C@@H](CC(=O)O)C(=O)N[C@@H](CC(=O)O)C(=O)N[C@@H](CCCCN)C(N)=O)NC(=O)[C@H](Cc2c[nH]cn2)NC(=O)[C@H](CO)NC(=O)[C@H]([C@@H](C)CC)NC(=O)[C@H](CC(C)C)NC(=O)[C@H](Cc2ccc(O)cc2)NC(=O)[C@H](Cc2ccc(O)cc2)NC(=O)[C@H](Cc2ccccc2)NC(=O)[C@H](CC(C)C)NC(=O)[C@H](Cc2ccc(O)cc2)NC(=O)[C@H](CCCNC(=N)N)NC1=O` (Ac-MCIRYLFYYLISHCGSGSDYKDDDDK-NH2; disulfide 2-14): the results for the Kd at FGF-R3C ECD, on FGF-R1C ECD and on FGF-R4 ECD (setting [1]) were greater than 10000 nM, greater than 10000 nM and 2 nM, respectively.

Turning to `CC[C@H](C)[C@@H]1NC(=O)[C@@H](NC(=O)[C@H](CCSC)NC(C)=O)CSSC[C@@H](C(=O)NCC(=O)N[C@@H](CO)C(=O)NCC(=O)N[C@@H](CO)C(=O)N[C@@H](CC(=O)O)C(=O)N[C@@H](Cc2ccc(O)cc2)C(=O)N[C@@H](CCCCN)C(=O)N[C@@H](CC(=O)O)C(=O)N[C@@H](CC(=O)O)C(=O)N[C@@H](CC(=O)O)C(=O)N[C@@H](CC(=O)O)C(=O)N[C@@H](CCCCN)C(N)=O)NC(=O)[C@@H]2CCCN2C(=O)[C@H](CCCNC(=N)N)NC(=O)[C@H](Cc2c[nH]c3ccccc23)NC(=O)[C@H](CCC(=O)O)NC(=O)[C@H](CCC(=O)O)NC(=O)[C@H](Cc2c[nH]c3ccccc23)NC(=O)[C@H](CCCCN)NC(=O)[C@H](CC(N)=O)NC(=O)[C@H](CCCCN)NC(=O)[C@H](CCCNC(=N)N)NC(=O)[C@H]([C@@H](C)O)NC1=O` (Ac-MCITRKNKWEEWRPCGSGSDYKDDDDK-NH2; disulfide 2-15), the Kd at FGF-R3C ECD, at FGF-R1C ECD and at FGF-R4 ECD (setting [1]) was greater than 10000 nM each time.

Regarding `CC[C@H](C)[C@@H]1NC(=O)[C@@H](NC(=O)[C@H](CCSC)NC(C)=O)CSSC[C@@H](C(=O)NCC(=O)N[C@@H](CO)C(=O)NCC(=O)N[C@@H](CO)C(=O)N[C@@H](CC(=O)O)C(=O)N[C@@H](Cc2ccc(O)cc2)C(=O)N[C@@H](CCCCN)C(=O)N[C@@H](CC(=O)O)C(=O)N[C@@H](CC(=O)O)C(=O)N[C@@H](CC(=O)O)C(=O)N[C@@H](CC(=O)O)C(=O)N[C@@H](CCCCN)C(N)=O)NC(=O)[C@H](C(C)C)NC(=O)[C@H](C)NC(=O)[C@H](Cc2c[nH]c3ccccc23)NC(=O)[C@H](Cc2ccccc2)NC(=O)[C@H](CC(=O)O)NC(=O)[C@H](CO)NC(=O)[C@H](CC(C)C)NC(=O)[C@H](CCCNC(=N)N)NC(=O)[C@H](Cc2ccc(O)cc2)NC1=O` (Ac-MCIYRLSDFWAVCGSGSDYKDDDDK-NH2; disulfide 2-13), the Kd (in general, the constant that tells how readily two partners part at equilibrium) at FGF-R3C ECD turned out to be 49 nM; at FGF-R1C ECD, 21 nM; at FGF-R4 ECD (crude NNK peptides, single concentration BLI (Table S3)), 133 nM.

Consider `CC[C@H](C)[C@@H]1NC(=O)[C@H](CCC(=O)O)NC(=O)[C@H](Cc2ccc(O)cc2)NC(=O)[C@H](CCC(=O)O)NC(=O)[C@H](CCCCN)NC(=O)[C@@H](NC(=O)[C@H](CCSC)NC(C)=O)CSSC[C@@H](C(=O)NCC(=O)N[C@@H](CO)C(=O)NCC(=O)N[C@@H](CO)C(=O)N[C@@H](CC(=O)O)C(=O)N[C@@H](Cc2ccc(O)cc2)C(=O)N[C@@H](CCCCN)C(=O)N[C@@H](CC(=O)O)C(=O)N[C@@H](CC(=O)O)C(=O)N[C@@H](CC(=O)O)C(=O)N[C@@H](CC(=O)O)C(=O)N[C@@H](CCCCN)C(N)=O)NC(=O)[C@H](Cc2ccc(O)cc2)NC(=O)[C@H](CCC(N)=O)NC(=O)[C@H](CC(C)C)NC(=O)[C@H](CCCCN)NC(=O)[C@H](Cc2ccc(O)cc2)NC(=O)[C@H](Cc2c[nH]c3ccccc23)NC(=O)[C@H](CC(C)C)NC1=O` (Ac-MCKEYEILWYKLQYCGSGSDYKDDDDK-NH2; disulfide 2-15), for which the Kd was greater than 10000 nM at FGF-R3C ECD, greater than 10000 nM at FGF-R1C ECD and 17 nM on FGF-R4 ECD (setting [1]).

In the case of `CC[C@H](C)[C@@H]1NC(=O)[C@H](CCCCN)NC(=O)[C@@H](NC(=O)[C@H](CCSC)NC(C)=O)CSSC[C@@H](C(=O)NCC(=O)N[C@@H](CO)C(=O)NCC(=O)N[C@@H](CO)C(=O)N[C@@H](CC(=O)O)C(=O)N[C@@H](Cc2ccc(O)cc2)C(=O)N[C@@H](CCCCN)C(=O)N[C@@H](CC(=O)O)C(=O)N[C@@H](CC(=O)O)C(=O)N[C@@H](CC(=O)O)C(=O)N[C@@H](CC(=O)O)C(=O)N[C@@H](CCCCN)C(N)=O)NC(=O)[C@H](C(C)C)NC(=O)[C@H](Cc2c[nH]c3ccccc23)NC(=O)[C@H](Cc2c[nH]c3ccccc23)NC(=O)[C@H](Cc2ccccc2)NC(=O)[C@H](CCCCN)NC(=O)[C@H](Cc2c[nH]cn2)NC(=O)[C@H](CC(=O)O)NC(=O)[C@H](C(C)C)NC(=O)[C@H](Cc2ccc(O)cc2)NC(=O)[C@H](Cc2c[nH]c3ccccc23)NC1=O` (Ac-MCKIWYVDHKFWWVCGSGSDYKDDDDK-NH2; disulfide 2-15), the Kd on FGF-R3C ECD is greater than 10000 nM; at FGF-R1C ECD it was greater than 10000 nM; on FGF-R4 ECD (setting [1]), 2 nM.

As to `CC[C@H](C)[C@@H]1NC(=O)[C@H](CCC(=O)O)NC(=O)[C@H](CCCNC(=N)N)NC(=O)[C@H](CCCCN)NC(=O)[C@@H](NC(=O)[C@H](CCSC)NC(C)=O)CSSC[C@@H](C(=O)NCC(=O)N[C@@H](CO)C(=O)NCC(=O)N[C@@H](CO)C(=O)N[C@@H](CC(=O)O)C(=O)N[C@@H](Cc2ccc(O)cc2)C(=O)N[C@@H](CCCCN)C(=O)N[C@@H](CC(=O)O)C(=O)N[C@@H](CC(=O)O)C(=O)N[C@@H](CC(=O)O)C(=O)N[C@@H](CC(=O)O)C(=O)N[C@@H](CCCCN)C(N)=O)NC(=O)[C@H](Cc2ccccc2)NC(=O)[C@H](C(C)C)NC(=O)[C@H](CC(C)C)NC(=O)[C@H](Cc2c[nH]c3ccccc23)NC(=O)[C@H](Cc2ccc(O)cc2)NC(=O)[C@H](CCCCN)NC1=O` (Ac-MCKREIKYWLVFCGSGSDYKDDDDK-NH2; disulfide 2-13), the Kd is greater than 10000 nM on FGF-R3C ECD, greater than 10000 nM on FGF-R1C ECD and 8 nM at FGF-R4 ECD (setting [1]).

Turning to `CC[C@H](C)[C@@H]1NC(=O)[C@H](CCCCN)NC(=O)[C@H](Cc2ccc(O)cc2)NC(=O)[C@H](Cc2ccc(O)cc2)NC(=O)[C@H]([C@@H](C)CC)NC(=O)[C@H](CC(C)C)NC(=O)[C@H](Cc2c[nH]cn2)NC(=O)[C@H](CCCNC(=N)N)NC(=O)[C@H](CCCCN)NC(=O)[C@@H](NC(=O)[C@H](CCSC)NC(C)=O)CSSC[C@@H](C(=O)NCC(=O)N[C@@H](CO)C(=O)NCC(=O)N[C@@H](CO)C(=O)N[C@@H](CC(=O)O)C(=O)N[C@@H](Cc2ccc(O)cc2)C(=O)N[C@@H](CCCCN)C(=O)N[C@@H](CC(=O)O)C(=O)N[C@@H](CC(=O)O)C(=O)N[C@@H](CC(=O)O)C(=O)N[C@@H](CC(=O)O)C(=O)N[C@@H](CCCCN)C(N)=O)NC(=O)[C@H](CCCNC(=N)N)NC(=O)[C@H](C)NC1=O` (Ac-MCKRHLIYYKIARCGSGSDYKDDDDK-NH2; disulfide 2-14), the results for the Kd at FGF-R3C ECD, on FGF-R1C ECD and on FGF-R4 ECD (setting [1]) were 1540 nM, greater than 10000 nM and 1 nM, respectively.

Source of the values: publication PMC10763615, “Identification and engineering of potent cyclic peptides with selective or promiscuous binding through biochemical profiling and bioinformatic data analysis” (RSC Chemical Biology, 2023).
